Measured values published in ChEMBL document CHEMBL1201862, “PubChem BioAssay data set” (2004).
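1) Cells in 96-well plates. 2) Compound, 48 h, 5 concentrations. 3) Linear interpolation between surrounding doses. 4) Unreached endpoint = highest concentration. At the GI50, growth is halved.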 The source made the active and inactive calls. Rule as the data show it: active = GI50 up to about 1.1 µM and inactive = higher.

Legend:
Experiment in all cases: growth of human tumour cells (NCI), 48 h
[1] = test system: KM12
[2] = test system: SNB-75
[3] = test system: HL-60
[4] = test system: ACHN
[5] = test system: UACC-257
[6] = test system: HCC 2998
[7] = test system: SK-MEL-2
[8] = test system: NCI/ADR-RES
[9] = test system: CAKI-1
[10] = test system: SF-295
[11] = test system: NCI-H522
[12] = test system: DU-145
[13] = test system: TK-10
[14] = test system: SW-620
[15] = test system: EKVX
[16] = test system: A549
[17] = test system: SR
[18] = test system: HOP-62
[19] = test system: SF-268
[20] = test system: NCI-H23
[21] = test system: HCT-116
[22] = test system: CCRF-CEM
[23] = test system: HOP-92
[24] = test system: UACC-62
[25] = test system: MCF7
[26] = test system: OVCAR-5
[27] = test system: PC-3
[28] = test system: Malme-3M
[29] = test system: SN12C
[30] = test system: RXF 393
[31] = test system: SNB-19
[32] = test system: Hs-578T
[33] = test system: BT-549
[34] = test system: HCT-15
[35] = test system: NCI-H460
[36] = test system: U-251
[37] = test system: SK-MEL-28
[38] = test system: OVCAR-3
[39] = test system: A498
[40] = test system: RPMI-8226
[41] = test system: HT-29
[42] = test system: NCI-H226
[43] = test system: SK-OV-3
[44] = test system: MDA-MB-435
[45] = test system: MDA-N
[46] = test system: SF-539
[47] = test system: MDA-MB-231
[48] = test system: SK-MEL-5
[49] = test system: OVCAR-4
[50] = test system: IGROV-1
[51] = test system: COLO 205
[52] = test system: OVCAR-8
[53] = test system: M14
[54] = test system: K562
[55] = test system: LOX IMVI
[56] = test system: MOLT-4
[57] = test system: T47D
[58] = test system: UO-31
[59] = test system: 786-0

Measured: GI50

CCCCOP(C)(=O)C(NC(=O)OCC)(C(F)(F)F)C(F)(F)F (stereo not given)
inactive: [1] > 100 µM | [2] > 100 µM | [3] > 100 µM | [4] > 100 µM | [5] > 100 µM | [6] > 100 µM | [7] > 100 µM | [8] > 100 µM | [9] > 100 µM | [10] > 100 µM | [11] 65.8 µM | [12] > 100 µM | [13] > 100 µM | [14] > 100 µM | [15] > 100 µM | [16] > 100 µM | [17] > 100 µM | [18] > 100 µM | [19] > 100 µM | [20] > 100 µM | [21] > 100 µM | [22] > 100 µM | [23] > 100 µM | [24] > 100 µM | [25] > 100 µM | [26] > 100 µM | [27] > 100 µM | [28] > 100 µM | [29] > 100 µM | [30] > 100 µM | [31] > 100 µM | [32] > 100 µM | [33] > 100 µM | [35] > 100 µM | [36] > 100 µM | [37] > 100 µM | [38] > 100 µM | [39] > 100 µM | [40] > 100 µM | [41] > 100 µM | [42] > 100 µM | [43] > 100 µM | [44] > 100 µM | [45] > 100 µM | [46] > 100 µM | [47] > 100 µM | [48] > 100 µM | [49] > 100 µM | [50] > 100 µM | [51] > 100 µM | [52] > 100 µM | [53] > 100 µM | [54] > 100 µM | [55] > 100 µM | [56] > 100 µM | [57] > 100 µM | [58] > 100 µM
> 100 µM: [34]

NC1=NN(c2ccccc2)C2(O)c3ccncc3C3=NN(c4ccccc4)C(=O)C132 (stereo not given)
> 100 µM: [34]
inactive: [1] > 100 µM | [2] > 100 µM | [3] > 100 µM | [4] > 100 µM | [5] > 100 µM | [6] > 100 µM | [7] > 100 µM | [59] > 100 µM | [8] > 100 µM | [9] > 100 µM | [10] > 100 µM | [11] > 100 µM | [12] > 100 µM | [14] > 100 µM | [15] > 100 µM | [16] > 100 µM | [17] > 100 µM | [19] > 100 µM | [20] > 100 µM | [21] > 100 µM | [22] > 10 µM | [23] > 100 µM | [24] > 100 µM | [25] > 100 µM | [26] > 100 µM | [27] > 100 µM | [28] 63.1 µM | [29] > 100 µM | [30] > 100 µM | [31] > 100 µM | [32] > 100 µM | [33] > 100 µM | [35] > 100 µM | [36] > 100 µM | [37] > 100 µM | [38] > 100 µM | [39] > 100 µM | [40] > 100 µM | [41] > 100 µM | [42] > 100 µM | [43] > 100 µM | [44] > 100 µM | [45] > 100 µM | [46] > 100 µM | [47] > 100 µM | [48] > 100 µM | [49] 51.2 µM | [50] > 100 µM | [51] > 100 µM | [52] > 100 µM | [53] > 100 µM | [54] > 100 µM | [55] > 100 µM | [56] > 100 µM | [57] > 100 µM | [58] > 100 µM
